As usually defined, the IC50 is the concentration that inhibits the measured activity by half.

Our source for the CC50 and IC50 values is patent publication EP2177496A1, “New analogs of polysphorin and uses thereof for treating or preventing malaria” (Assistance Publique - Hôpitaux de Paris, priority 2008, dated 2010).

Data set [1] is described as follows: MTT toxicity assay reported with the erythrocytic stage (TC50), cells not named. In kind it is cell-based. Conditions: 50% toxic concentration, read-out: TC50 (µM) Erythrocytic stage P. falciparum. The source says:
The selectivity index (SI) was defined as the ratio of the TC50 to the IC50.
In general terms: Tetrazolium dyes change colour on reduction, which living cells bring about.

Data set [2] deals with P. falciparum. The experiment in a line: In vitro activity against hepatic stage of P. falciparum in primary human hepatocytes (liver-schizont count). In kind it is cell-based, P. falciparum (NF54 strain). Conditions: cultures arrested at 6 days. As for the experimental part: (§1) Activity against pre-erythrocytic stages was tested by in vitro assays with the human parasite P. falciparum (NF54 strain) and the rodent parasite P. yoelii (265 BY strain). The rodent parasite P. yoelii is produced in the insectarium of the INSERM Unit U511 and human parasite P. falciparum was obtained from collaboration with R. Sauerwein.
(§2) Sporozoites were obtained from infected salivary glands of Anopheles stephensi mosquitoes fed on continuous culture of P. falciparum (coll R. Sauerwein, Netherlands), or on P. yoelii parasitized mice (insectarium of the INSERM Unit U511). After aseptic dissection, salivary glands were homogenized in a glass grinder and diluted in culture medium or sterile phosphate-buffered saline (PBS).
Primary cultures of rodent or human hepatocytes were prepared from liver segments taken from mouse or from adult patients undergoing partial hepatectomy. Hepatocytes were isolated using the two-step enzymatic perfusion technique (Guguen-Guillouzo et al., 1982) and were further purified on a discontinuous Percoll gradient. Then, hepatocytes were seeded in eight-chamber Lab-Tek permanox slides at a density of 1,4x10^5 cells per cm^2, and maintained under culture conditions as described in Mahmoudi et al., 2003. After complete adherence to culture plates, rodent and human hepatocytes were infected with P. yoelii or P. falciparum sporozoites, respectively, aseptically dissected from mosquitoes' salivary glands, as described above. Hepatocytes were inoculated with 6x10^4 sporozoites per Lab-Tek well. Compounds to be tested were added at the time of infection and/or after penetration of the sporozoites and at different concentrations (three wells per dilution). […] Liver-schizonts were quantified by microscopic examination after fluorescent labeling using a primary mouse antibody directed against Plasmodium heat shock protein-70 (Renia et al., 1990) produced in INSERM unit 511 and a secondary goat anti-mouse antibody conjugated with fluorescein isothiocyanate (Sigma Aldrich).

In data set [3] the test system is P. falciparum. The experiment in a line: In vitro activity against erythrocytic stage of P. falciparum ([3H]-hypoxanthine incorporation). Conditions: read-out: IC50 (µM) Erythrocytic stage P. falciparum. In kind it is cell-based, chloroquine-sensitive (3D7w) clone of P. falciparum. As for the experimental part:
After 48 hours, [^3H]-hypoxanthine (Amersham) was added to each well and then plates were incubated for 24 hours. Parasites were harvested, and incorporation of radioactivity was determined by liquid scintillation counting (Beckman LS1701, les Ulis, France). The counts-per-minute (cpm) was adjusted relative to controls to obtain percentages of inhibition. […] This estimation was obtained with IC50 estimator software. For the assay, the parasites were synchronized by D-sorbitol treatment.

In data set [4] the test system is HepG2 cells. The experiment in a line: in vitro. Particulars: read-out: TC50 (µM) Hepatic stage (rodent) P. yoelii; 50% toxic concentration, MTT assay. The protocol: (§3) A preliminary screening was performed consisting in the infection of human CD81 transfected hepatocarcinome cell line HepG2 (HepG2/CD81) with P. yoelii. IC50 (inhibiting concentration 50), TC50 (toxic concentration 50) and TI (therapeutic index, ratio TC50/IC50) were estimated for each drug tested. Selected molecules (small IC50, high TC50 and high TI) were analyzed in human hepatocytes. Briefly, HepG2 cells were plated in 96-well plates for 24 h prior to inoculation with 1x10^4 of P. yoelii sporozoites. Sporozoites-inoculated culture plates were centrifuged for 5 min at 1,500 rpm at 4°C in order to enhance the infection rate as described by Gruner (Gruner et al., 2005). After 3h at 37°C, the cultures were washed and further incubated in fresh medium for 48 h (P. yoelii) before quantification of infected cells in triplicate wells.
(§4) Toxicity was determined by using the colorimetric 3-(4,5-dimethylthiazol-2-yl)-2,5-diphenyltetrazolium bromide (MTT) assay (Mosman., 1983). Briefly, HepG2 cells cultures were prepared in 96-well plates as described above. Drugs were tested in triplicate wells at eight concentrations ranging from 6.4 × 10^-3 µM to 200 µM. One hundred microliters of 0.5 mg/ml MTT (5 mg/ml MTT in water diluted 10x in William's medium without fetal bovine serum) was added to each well, and the plates were incubated for 4 h (37°C, 5% CO2). The medium was discarded, and the cells were resuspended in ethanol and dimethyl sulfoxide (50/50, vol/vol). The plates were read in an enzyme-linked immunosorbent assay plate reader (550-nm absorbance wavelength and 620-nm reference wavelength). The results were expressed as the percent change in viability compared to drug-free control cultures. […] Each drug and concentration was tested at least in triplicate. The selectivity index (SI) was defined as the ratio of the TC50 to the IC50.

Data set [5] deals with P. yoelii. The experiment in a line: In vitro activity against hepatic stage of P. yoelii (sporozoite-infected HepG2/CD81 cells or rodent hepatocytes, liver-schizont count). Type of data set: cell-based, P. yoelii (265 BY strain). Conditions: rodent parasite P. yoelii, cultures arrested at 48 h. The protocol: as §1, §2
Primary cultures of rodent or human hepatocytes were prepared from liver segments taken from mouse or from adult patients undergoing partial hepatectomy. Hepatocytes were isolated using the two-step enzymatic perfusion technique (Guguen-Guillouzo et al., 1982) and were further purified on a discontinuous Percoll gradient. Then, hepatocytes were seeded in eight-chamber Lab-Tek permanox slides at a density of 1,4x10^5 cells per cm^2, and maintained under culture conditions as described in Mahmoudi et al., 2003. After complete adherence to culture plates, rodent and human hepatocytes were infected with P. yoelii or P. falciparum sporozoites, respectively, aseptically dissected from mosquitoes' salivary glands, as described above. Hepatocytes were inoculated with 6x10^4 sporozoites per Lab-Tek well. Compounds to be tested were added at the time of infection and/or after penetration of the sporozoites and at different concentrations (three wells per dilution). Every day, medium was replaced by fresh medium containing or not different concentrations of the molecules to be tested. Cultures were arrested at 48 hours (P. yoelii) or 6 days (P. falciparum) and cells were fixed with methanol. Liver-schizonts were quantified by microscopic examination after fluorescent labeling using a primary mouse antibody directed against Plasmodium heat shock protein-70 (Renia et al., 1990) produced in INSERM unit 511 and a secondary goat anti-mouse antibody conjugated with fluorescein isothiocyanate (Sigma Aldrich).

The nature of data set [6]: in vitro. Particulars: human, TC50 (µM) Hepatic stage (rodent) P. yoelii, 50% toxic concentration, MTT assay. The protocol:
as §3, §4

Data set [7] in a line: MTT toxicity assay on human hepatocytes (TC50). The protocol:
Cytotoxic effect of the compounds was evaluated on human hepatocytes, obtained as described above. The colorimetric MTT assay was used (Mosman., 1983). Briefly, hepatocyte cultures were prepared in 96-well plates as described above. Drugs were tested in triplicate wells at eight concentrations ranging from 6.4 x 10^-3 µM to 200 µM. One hundred microliters of 0.5 mg/ml MTT (5 mg/ml MTT in water diluted 10x in William's medium without fetal bovine serum) was added to each well, and the plates were incubated for 4 h (37°C, 5% CO2). The medium was discarded, and the cells were resuspended in ethanol and dimethyl sulfoxide (50/50, vol/vol). The plates were read in an enzyme-linked immunosorbent assay plate reader (550-nm absorbance wavelength and 620-nm reference wavelength). The results were expressed as the percent change in viability compared to drug-free control cultures. […] Each drug and concentration was tested at least in triplicate. The selectivity index (SI) was defined as the ratio of the TC50 to the IC50.

Where [8] appears, read: ring stage parasitized erythrocytes, 3D7w clone, 48 h + 24 h with [3H]-hypoxanthine.
Setting [9] is: Plasmodium falciparum, Erythrocyte, 72 h, ring stage parasitized erythrocytes, 3D7w clone, 48 h + 24 h with [3H]-hypoxanthine.
Where [10] appears, read: Plasmodium yoelii, Hepatocyte, 48 h.

With `COc1cc(C(O)C(C)Oc2c(OC)cc(-c3ccccc3)cc2OC)cc(OC)c1OC` (centres unmarked) [drawing 79], the values for the CC50 in data set [1] and in data set [4] were 50 µM and above 50 µM, respectively. The IC50 in data set [2] amounted to 0.007 µM; in data set [3] (setting [8]), 20 µM; in data set [5] it was 3.61 ± 4 µM.
Regarding `COc1cc(C(O)C(C)Oc2c(OC)cccc2OC)cc(OC)c1OC` (centres unmarked) [drawing 75], in data set [4], the CC50 worked out at 0.126 µM. This compound also displayed an IC50 in data set [5] of 2.52 µM.
As for `COc1cc(C)cc(OC)c1OC(C)C(O)c1ccc2c(c1)OC(F)(F)O2` (centres unmarked) [drawing 73], the CC50 in data set [1] and in data set [4] was 53.7 µM throughout. Further, the IC50 in data set [3] (setting [8]) stood at 13.5 µM; in data set [5] it was 5.62 µM.
For `COc1cccc(OC)c1OC(C)C(O)c1ccc2c(c1)OC(F)(F)O2` (centres unmarked) [drawing 71], the CC50 in data set [1] was determined as 53 µM. In addition, the IC50 was above 40 µM in data set [3] (setting [8]) and 20.2 µM in data set [5].
Take `CCN(CC)CCCC(C)Nc1ccnc2cc(Cl)ccc12` (centres unmarked) [Chloroquine, reference compound]: the IC50 in data set [3] (Plasmodium falciparum, Erythrocyte, 72 h) was 0.04 µM.
`COc1cc(C(O)C(C)Oc2c(OC)cccc2OC)cc(OC)c1OC` (centres unmarked) [drawing 74]: the CC50 was 58 µM in data set [1] and 57.9 µM in data set [4]. Further, the results for the IC50 in data set [3] (setting [9]) and in data set [5] were above 40 µM and 28.6 µM, respectively.
Take `COc1cccc(OC)c1OC(C)C(O)c1ccc2c(c1)OC(F)(F)O2` (centres unmarked) [drawing 70]: the CC50 in data set [1] was found to be 55 µM; in data set [6], 54.9 µM. The IC50 in data set [3] (setting [9]) is above 40 µM; in data set [5] (setting [10]) it was 20.1 µM.
With `COc1cc(C(O)C(C)Oc2c(OC)cc(-c3ccccc3)cc2OC)cc(OC)c1OC` (centres unmarked) [drawing 78], the CC50 is 50 µM in data set [1], 50 µM in data set [7] and above 50 µM in data set [6]. Besides, the IC50 in data set [2] worked out at 0.02 µM; in data set [3] (setting [9]), 11.5 µM; in data set [5] (setting [10]), 3.54 ± 4.9 µM.
With `COc1cc(C)cc(OC)c1OC(C)C(O)c1ccc2c(c1)OC(F)(F)O2` (centres unmarked) [drawing 72], the figures for the CC50 in data set [1] and in data set [6] were 57 µM and 56.8 µM, respectively. Also, the IC50 is 13.6 µM in data set [3] (setting [9]) and 19 µM in data set [5].
The like results for `COc1cc(C(O)C(C)Oc2c(OC)cc(C)cc2OC)cc(OC)c1OC` (centres unmarked) [drawing 76] were, in that order, 47 µM, 47 µM, above 40 µM and 50.1 µM.
`COc1cc(NC(C)CCCN)c2ncccc2c1` (centres unmarked) [Primaquine, reference compound]: the CC50 in data set [6] came to 12.6 µM.
As to `COc1cc(C(O)C(C)Oc2c(OC)cc(C)cc2OC)cc(OC)c1OC` (centres unmarked) [drawing 77], the CC50 was 49.5 µM in data set [1], 125 µM in data set [7] and 49.5 µM in data set [4]. Further, the IC50 in data set [2] (Plasmodium falciparum, Hepatocyte, 144 h) is 0.38 µM; in data set [3] (setting [8]), above 40 µM; in data set [5] it was 0.0045 ± 0.005 µM.
